Data from patent US20260158152A1, “SPLICING MODULATOR ANTIBODY-DRUG CONJUGATES AND METHODS OF USE” (EISAI R&D MANAGEMENT CO., LTD., priority 2018, published 2026).

Columns and labels:
Ad2.1 pre-mRNA splicing = experiment: In vitro splicing (IVS) RT-qPCR, Ad2.1 pre-mRNA in HeLa S3 nuclear extract; assay type: biochemical; conditions: payload of the ADC; read-out: qPCR-IVS-ATS GMean IC50 (nM) Ad2.1
Protocol: To evaluate payload activity in a cell-free system, an in vitro splicing assay was performed. The payloads were incubated with nuclear extracts and pre-mRNA substrate minigenes.
HeLa nuclear extract preparation: HeLa S3 cell pellets were resuspended in hypotonic buffer (10 mM HEPES PH 7.9, 1.5 mM MgCl2, 10 mM KCl, 0.2 mM PMSF, 0.5 mM DTT) and the suspension was brought up to a total of 5 packed cell volume (PCV). After centrifugation, the supernatant was discarded, and the cells were brought up to 3 PCV with hypotonic buffer and incubated on ice for 10 min. Cells were lysed using a dounce homogenizer and then centrifuged. […]. The nuclei were gently mixed for 30 min before centrifuging. The supernatant (nuclear extract) was then dialyzed into storage buffer (20 mM HEPES pH 7.9, 100 mM KCl, 0.2 mM EDTA, 20% glycerol, 0.2 mM PMSF, 0.5 mM DTT). Protein concentration was determined using NanoDrop 8000 UV-Vis spectrophotometer (ThermoFisher Scientific).
IVS: All Ad2-derived sequences (Pellizzoni et al. (1998) Cell 95 (5): 615-24) were cloned into pcDNA3.1(+) vector (Promega) using 5′ EcoRI and 3′ XbaI restriction sites. The plasmids were linearized using XbaI and used as DNA templates in in vitro transcription reactions. The FtzΔi intron-less plasmid (Luo and Reed (1999) 96 (26): 14937-42) was linearized using EcoRI. […]

THP1.1 = experiment: Payload cell potency and lethality CellTiter-Glo, THP1; assay type: cell-based; conditions: payload of the ADC
Protocol: Each concentration was tested in triplicate. […] Values represent time zero (TO).

PC3 cells = experiment: Cell viability, EPHA2-expressing PC3; assay type: cell-based; conditions: free payload of the ADC
Protocol: (§1) HCC1954 (American Type Culture Collection (ATCC)) breast ductal carcinoma cells were plated at 2000 cells/well in flat bottom 96-well tissue culture plates (Corning) in a total volume of 90 μL tissue culture medium supplemented with 10% fetal bovine serum (ThermoFisher Scientific). Cells were treated with a 3-fold serial dilution of compound from 200 nM to 0.03 nM. Each concentration was tested in triplicate. At the time of treatment, a plate of untreated cells was evaluated using CellTiter-Glo®2.0 Luminescent Cell Viability Assay according to the manufacturer's recommendations (Promega; #G9241). CellTiter-Glo® 2.0 reagent was added to the medium, incubated, and assayed on an EnVision Multilabel Reader (PerkinElmer). Values represent time zero (TO). […] Percentage growth inhibition was calculated as: [(T144−T0)/(C−T0)]×100 for concentrations for which T144>/=T0 or [(T144−T0)/T0]×100 for concentrations for which T144<T0. The dose response curve plots were generated using Prism 7 (Graphpad) and fit using nonlinear regression analysis and the log (inhibitor) versus response—variable slope (four parameters).
(§2) Anti-CD138 ADCs were tested in the CD138-expressing MOLP8 multiple myeloma cell line. Similarly, anti-EPHA2 ADCs were tested in the EPHA2-expressing PC3 prostate cancer cell line.

[1] = Caco-2 permeability of ADC payload; assay type: in vitro ADME; conditions: human, Caco-2; payload, apical to basolateral, 2 hours; read-out: Permeability Mean Caco-2 A-B Perm (10e−6 cm/s)
Protocol: Integrity of cell monolayer was confirmed by TEER (transepithelial electrical resistance) and Lucifer yellow. Payloads were spiked in duplicate at 10 µM, separately, on both sides of the cell monolayer. Permeability rates from the apical to basolateral (A−B) direction and the basolateral to apical (B−A) direction were determined by sampling aliquots from both chambers immediately after treatment (t=0) and following incubation for 2 hours. Samples were protein precipitated with organic solvent containing internal standard and analyzed by LC-MS/MS (SCIEX; API 5500). The area ratio responses of payload/internal standard over time in both directions were used to generate permeability (cm/sec) values.

N87 cells = experiment: Cell viability CellTiter-Glo, N87; assay type: cell-based, human; conditions: unconjugated payload of the ADC
Protocol: as §1
HCC1954 (ATCC), 2000 cells/well), N87 (ATCC, 4000 cells/well), SKBR3 (ATCC, 3000 cells/well), and MCF7 (ATCC, 1500 cells/well) cell lines were used. Cell viability analysis was performed as described in section 2.3.

MOLP8 cells = experiment: Cell viability, CD138-expressing MOLP8; assay type: cell-based; conditions: unconjugated payload of the ADC
Protocol: as §1, §2

| SMILES | IC50 (Ad2.1 pre-mRNA splicing) | Payload cell lethality: CT..-ATS GMean LD50 (nM) THP1.1 (THP1.1) | Payload Rmin (PC3 cells) | Papp A→B at 2 h, 10 µM [1] | Payload Rmin (%) (N87 cells) | Payload Rmin (%) (MOLP8 cells) |
| --- | --- | --- | --- | --- | --- | --- |
| C/C(=C\c1cc(F)cc(N2CCN(C(=O)Cn3cccn3)CC2)c1)[C@H]1OC(=O)C[C@H](O)CC[C@H](C)[C@@H](OC(=O)N2CCNCC2)/C=C/[C@@H]1C [D16] | 18 nM | 21.48 nM | – | – | – | – |
| CC(=O)N1CCC(n2nnc3c(F)cc(/C=C(\C)[C@H]4OC(=O)C[C@H](O)CC[C@H](C)[C@@H](OC(=O)N5CCNCC5)/C=C/[C@@H]4C)cc32)CC1 [D14] | – | – | −79.835% | 0.08 ×10⁻⁶ cm/s | −52.662% | −6.1% |
